pKi: −log10 of the molar value.
molecular target: T1, full length human recombinant glucocorticoid receptor (Homo sapiens, UniProt P04150); assay: Glucocorticoid Receptor Binding Assay (fluorescence polarization competitor assay, Fluormone GS Far Red tracer)
T1 construct: partially purified full length human recombinant glucocorticoid receptor; purchased Panvera/Invitrogen PV4302
T1 sequence (P04150 1-777): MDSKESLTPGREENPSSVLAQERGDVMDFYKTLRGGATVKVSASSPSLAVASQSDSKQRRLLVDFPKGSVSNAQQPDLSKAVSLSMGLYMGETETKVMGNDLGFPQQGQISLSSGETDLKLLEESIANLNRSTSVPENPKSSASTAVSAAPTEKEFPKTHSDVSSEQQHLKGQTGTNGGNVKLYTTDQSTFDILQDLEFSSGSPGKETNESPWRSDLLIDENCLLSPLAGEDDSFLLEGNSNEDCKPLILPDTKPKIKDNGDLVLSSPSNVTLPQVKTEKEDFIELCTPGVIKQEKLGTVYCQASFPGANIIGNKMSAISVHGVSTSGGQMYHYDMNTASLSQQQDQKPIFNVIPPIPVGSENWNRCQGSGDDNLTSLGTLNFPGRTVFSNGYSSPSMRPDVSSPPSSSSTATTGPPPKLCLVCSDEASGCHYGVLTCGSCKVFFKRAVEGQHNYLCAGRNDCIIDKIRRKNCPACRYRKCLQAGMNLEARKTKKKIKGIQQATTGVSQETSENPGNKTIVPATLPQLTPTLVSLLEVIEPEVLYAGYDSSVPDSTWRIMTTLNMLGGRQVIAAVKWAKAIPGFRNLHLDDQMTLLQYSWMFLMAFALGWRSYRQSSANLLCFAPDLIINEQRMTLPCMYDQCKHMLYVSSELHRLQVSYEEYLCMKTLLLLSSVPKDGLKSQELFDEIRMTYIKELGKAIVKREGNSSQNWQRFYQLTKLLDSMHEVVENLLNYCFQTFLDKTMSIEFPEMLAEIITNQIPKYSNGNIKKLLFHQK
Protocol: Glucocorticoid Receptor Binding Assay
The ability of the substances to bind to the glucocorticoid receptor was determined with the help of a commercial Glucocorticoid Receptor Competitor Assay far red kit provided by Panvera/Invitrogen (PV4302). This kit is used as provided by the supplier. It contains some partially purified full length human recombinant glucocorticoid receptor, a coactivator related GR stabilizing peptide, a tight-binding fluorescent GR ligand Fluormone™ GS Far Red as labeled tracer and a screening buffer. All reagents are prepared and the assay is run according to the recommendations of the kit manufacturer.
Briefly, the GR stabilizing peptide and the human recombinant glucocorticoid receptor are both diluted with the screening buffer (pH 7.4) and are gently mixed (no vortexing) just before the assay and kept on ice until use. The fluorescent-labeled ligand is also diluted with the screening buffer just before the assay and kept on ice until use. The substances to test are pre-diluted in pure DMSO then some water is added to get an intermediate 4.2% DMSO stock solution. Ten microliter of the intermediate stock solution is gently mixed with 5 μl of diluted fluorescent-labeled ligand and 5 μl of diluted human recombinant glucocorticoid receptor in a 384-well plate (low volume, ultraclear, glass plate from Greiner ref 788896). The plate is centrifuged, sealed and incubated for 3 hours at 22° C. in the dark. The polarized fluorescence is measured with a Zeiss-HTS reader or any equivalent equipment (610-660 nm).
All compounds were tested to determine IC50 in a serial dilution experiment. The concentration at which 50% inhibition of the fluorescent GR ligand Fluormone™ GS Far Red is obtained (the IC50) is determined after fitting with a sigmoidal dose-response model of a plot of the logarithm of the concentration versus percent inhibition measured for the different concentrations. Ki's were calculated from IC50 based on Cheng-Prusoff equation (Cheng, Y, Prusoff, W H (1973) Biochem Pharmacol 22, 3099-3108): Ki=IC50/[1+D/Kd] wherein D is the concentration of the fluorescent ligand and Kd is the binding constant for the fluorescent ligand binding to the receptor under the conditions used in the competition experiment.

| SMILES | pKi |
| --- | --- |
| COC(=O)c1ccc(Oc2ccc([C@@H](C)[C@@](O)(c3ccc(=O)n(C)c3)C(F)(F)F)c(Cl)c2)cc1 (relative stereo) [Example 151, 4-{3-Chloro-4-[3,3,3-trifluoro-2-hydroxy-1-methyl-2(1-methyl-6-oxo-1,6-dihydro-pyridin-3-yl)-propyl]-phenoxy}-benzoic acid methyl ester] | 8.62 |
| C[C@H](c1ccc(Oc2ccc(C(=O)O)cc2F)cc1Cl)[C@@](O)(c1ccc(=O)n(C)c1)C(F)(F)F (relative stereo) [Example 156, 4-{3-Chloro-4-[3,3,3-trifluoro-2-hydroxy-1-methyl-2-(1-methyl-6-oxo-1,6-dihydro-pyridin-3-yl)-propyl]-phenoxy}-3-fluoro-benzoic acid] | 9.05 |
| C[C@H](c1ccc(Oc2ccc(C(=O)O)cc2Cl)cc1Cl)[C@@](O)(c1ccc(=O)n(C)c1)C(F)(F)F (relative stereo) [Example 157, 3-Chloro-4-{3-chloro-4-[3,3,3-trifluoro-2-hydroxy-1-methyl-2(1-methyl-6-oxo-1,6-dihydro-pyridin-3-yl)-propyl]-phenoxy}-benzoic acid] | 9.15 |
| CCOC(=O)COc1ccc(Oc2ccc([C@@H](C)[C@@](O)(c3ccc(=O)n(C)c3)C(F)(F)F)c(Cl)c2)cc1 (relative stereo) [Example 159, (4-{3-Chloro-4-[3,3,3-trifluoro-2-hydroxy-1-methyl-2-(1-methyl-6-oxo-1,6-dihydro-pyridin-3-yl)-propyl]-phenoxy}-phenoxy)-acetic acid ethyl ester] | 8.70 |
| COC(=O)c1cnc(Oc2ccc([C@@H](C)[C@@](O)(c3ccc(=O)n(C)c3)C(F)(F)F)c(Cl)c2)cc1C(F)(F)F (relative stereo) [Example 163, 6-{3-Chloro-4-[3,3,3-trifluoro-2-hydroxy-1-methyl-2-(1-methyl-6-oxo-1,6-dihydro-pyridin-3-yl)-propyl]-phenoxy}-4-trifluoromethyl-nicotinic acid methyl ester] | 7.62 |
| C[C@H](c1ccc(-c2ccc(F)c(C(=O)O)c2)cc1Cl)[C@@](O)(c1ccc(=O)n(C)c1)C(F)(F)F (relative stereo) [Example 165, 3′-Chloro-4-fluoro-4′-[3,3,3-trifluoro-2-hydroxy-1-methyl-2-(1-methyl-6-oxo-1,6-dihydro-pyridin-3-yl)-propyl]-biphenyl-3-carboxylic acid] | 7.55 |
| C[C@@H](c1ccc(-c2ccc(CC(=O)O)cc2)cc1Cl)[C@](O)(c1ccc(=O)n(C)c1)C(F)(F)F (relative stereo) [Example 171, {3′-Chloro-4′-[3,3,3-trifluoro-2-hydroxy-1-methyl-2-(1-methyl-6-oxo-1,6-dihydro-pyridin-3-yl)-propyl]-biphenyl-4-yl}-acetic acid] | 7.10 |
| C[C@@H](c1ccc(Oc2ccc(C(=O)O)cc2)cc1Cl)[C@](O)(c1ccc(=O)[nH]c1)C(F)(F)F (relative stereo) [Example 175, 4-{3-Chloro-4-[3,3,3-trifluoro-2-hydroxy-1-methyl-2-(6-oxo-1,6-dihydro-pyridin-3-yl)-propyl]-phenoxy}-benzoic acid] | 7.12 |
| C[C@@H](c1ccc(-c2ccc(C(=O)O)c(Cl)c2)cc1Cl)[C@](O)(c1ccc(=O)[nH]c1)C(F)(F)F (relative stereo) [Example 179, 3,3′-Dichloro-4′-[3,3,3-trifluoro-2-hydroxy-1-methyl-2-(6-oxo-1,6-dihydro-pyridin-3-yl)-propyl]-biphenyl-4-carboxylic acid] | 6.30 |
| C[C@@H](c1ccc(-c2ccc(CC(=O)O)cc2)cc1Cl)[C@](O)(c1ccc(=O)[nH]c1)C(F)(F)F (relative stereo) [Example 182, {3′-Chloro-4′-[3,3,3-trifluoro-2-hydroxy-1-methyl-2-(6-oxo-1,6-dihydro-pyridin-3-yl)-propyl]-biphenyl-4-yl}-acetic acid] | 6.38 |
| CCOC(=O)c1cc(-c2ccc([C@H](C)[C@](O)(c3ccc(=O)n(CC)c3)C(F)(F)F)c(Cl)c2)ccc1F (relative stereo) [Example 183, 3′-Chloro-4′-[2-(1-ethyl-6-oxo-1,6-dihydro-pyridin-3-yl)-3,3,3-trifluoro-2-hydroxy-1-methyl-propyl]-4-fluoro-biphenyl-3-carboxylic acid ethyl ester] | 8.12 |
| CCn1cc([C@@](O)([C@@H](C)c2ccc(-c3ccc(C(=O)O)c(F)c3)cc2Cl)C(F)(F)F)ccc1=O (relative stereo) [Example 186, 3′-Chloro-4′-[2-(1-ethyl-6-oxo-1,6-dihydro-pyridin-3-yl)-3,3,3-trifluoro-2-hydroxy-1-methyl-propyl]-3-fluoro-biphenyl-4-carboxylic acid] | 7.17 |
| COC(=O)c1ccc(Oc2ccc(Cl)c([C@H](C)[C@](O)(c3ccc(=O)n(C)c3)C(F)(F)F)c2)cc1Cl (relative stereo) [Example 189, 2-Chloro-4-{4-chloro-3-[3,3,3-trifluoro-2-hydroxy-1-methyl-2-(1-methyl-6-oxo-1,6-dihydro-pyridin-3-yl)-propyl]-phenoxy}-benzoic acid methyl ester] | 8.26 |
| COC(=O)c1ccc(Oc2ccc([C@@H](C)[C@@](O)(c3ccc(=O)n(C)c3)C(F)(F)F)c(Cl)c2Cl)cc1 (relative stereo) [Example 197, 4-{2,3-Dichloro-4-[3,3,3-trifluoro-2-hydroxy-1-methyl-2-(1-methyl-6-oxo-1,6-dihydro-pyridin-3-yl)-propyl]-phenoxy}-benzoic acid methyl ester] | 8.74 |
| COC(=O)c1cnc(Oc2ccc([C@H](C)[C@](O)(c3cc(C)c(=O)n(C)c3)C(F)(F)F)c(Cl)c2)cc1C(F)(F)F (relative stereo) [Example 205, 6-{3-Chloro-4-[2-(1,5-dimethyl-6-oxo-1,6-dihydro-pyridin-3-yl)-3,3,3-trifluoro-2-hydroxy-1-methyl-propyl]-phenoxy}-4-trifluoromethyl-nicotinic acid methyl ester] | 8.89 |
| Cc1cc([C@@](O)([C@@H](C)c2ccc(Oc3ccc(C(=O)O)c(Cl)c3)cc2Cl)C(F)(F)F)cn(C)c1=O (relative stereo) [Example 208, 2-Chloro-4-{3-chloro-4-[2-(1,5-dimethyl-6-oxo-1,6-dihydro-pyridin-3-yl)-3,3,3-trifluoro-2-hydroxy-1-methyl-propyl]-phenoxy}-benzoic acid] | 9.40 |
| CCOC(=O)c1cc(Oc2ccc([C@H](C)[C@](O)(c3cc(C)c(=O)n(C)c3)C(F)(F)F)c(Cl)c2)ccc1Cl (relative stereo) [Example 210, 2-Chloro-5-{3-chloro-4-[2-(1,5-dimethyl-6-oxo-1,6-dihydro-pyridin-3-yl)-3,3,3-trifluoro-2-hydroxy-1-methyl-propyl]-phenoxy}-benzoic acid ethyl ester] | 8.70 |
| Cc1cc([C@@](O)([C@@H](C)c2ccc(Oc3ccc(F)c(C(=O)O)c3)cc2Cl)C(F)(F)F)cn(C)c1=O (relative stereo) [Example 213, 5-{3-Chloro-4-[2-(1,5-dimethyl-6-oxo-1,6-dihydro-pyridin-3-yl)-3,3,3-trifluoro-2-hydroxy-1-methyl-propyl]-phenoxy}-2-fluoro-benzoic acid] | 9.40 |
| Cc1cc([C@@](O)([C@@H](C)c2ccc(Oc3ccc(C(=O)O)cc3F)cc2Cl)C(F)(F)F)cn(C)c1=O (relative stereo) [Example 216, 4-{3-Chloro-4-[2-(1,5-dimethyl-6-oxo-1,6-dihydro-pyridin-3-yl)-3,3,3-trifluoro-2-hydroxy-1-methyl-propyl]-phenoxy}-3-fluoro-benzoic acid] | 9.70 |
